Assay [1] addresses T1, Human GPR40 (Homo sapiens, UniProt O14842). The assay can be described thus: Inositol Phosphate Turnover (IP1) Assay. Type of assay: cell-based. Further details: expressed in transfected cells; host or cells: HEK cells (stably expressing the aequorin reporter). To be noted: HEK cells stably expressing human GPR40, CisBio IP-One kit. How it is done:
(§1) Human and mouse GPR40 stable cell-lines were generated in CHO cells stably expressing NFAT BLA (Beta-lactamase). A human GPR40 stable cell-line was generated in HER cells stably expressing the aequorin expressing reporter. The expression plasmids were transfected using lipofectamine (Life Technologies) following manufacturer's instructions. Stable cell-lines were generated following drug selection.
The assay is performed in 384-well format. HEK cells stably expressing human GPR40 are plated at 15,000 cells per well in growth medium (DMEM/10% fetal calf serum). Cell plates are then incubated 16 hours at 37 degrees in a 5% CO2 incubator.
Measurement of Inositol Phosphate Turnover (IP1) is performed using the CisBio IP-One kit (Part number 62IPAPEB). After the 16 hour incubation, the cells are washed with HEPES buffer and 10 ul of stimulation buffer (prepared as described in the kit) is added to each well. In a separate plate, compounds are diluted in DMSO (400-fold over the final concentration in the assay well) and 25 nl is acoustically transferred to the appropriate well in the assay cell plate. The plates are then incubated for 60 minutes at 37 degrees. 10 ul of detection buffer (also prepared as described in the IP-One kit) is added to each well and the plates are incubated for 60 minutes in the dark. The plates are then read in a Perkin Elmer EnVision or equivalent reader able to measure FRET. Fluorescent ratio of emission at 665 and 620 nm is then converted to IP1 concentration by back calculating from an IP1 standard curve prepared at the time of the assay.

In assay [2] the target is T1, Human GPR40. The assay can be described thus: FLIPR assay, agonist-induced calcium mobilization. It counts as cell-based. To be noted: GPR40/CHO NFAT BLA cells. Further details: expressed in transfected cells. How it is done: as §1
FLIPR (Fluorimetric Imaging Plate Reader, Molecular Devices) assays were performed to measure agonist-induced calcium mobilization of the stable clones. For the FLIPR assay, one day before assay, GPR40/CHO NFAT BLA cells were seeded into black-wall-clear-bottom 384-well plates (Costar) at 1.4×10e4 cells/20 μL medium/well. The cells were incubated with 20 μl/well of the assay buffer (HMS, 0.1% BSA, 20 mM HEPES, 2.5 mM probenecid, pH 7.4) containing 8 μM fluo-4, AM, 0.08% pluronic acid at room temperature for 100 minutes. Fluorescence output was measured using FLIPR. Compounds were dissolved in DMSO and diluted to desired concentrations with assay buffer. 13.3 μL/well of compound solution was added.
In general terms: Calcium assays in cells follow changes in intracellular calcium, usually with a dye or a luminescent sensor.

As a reminder, the EC50 is the midpoint of the concentration-response curve.

T1 sequence (O14842 whole entry): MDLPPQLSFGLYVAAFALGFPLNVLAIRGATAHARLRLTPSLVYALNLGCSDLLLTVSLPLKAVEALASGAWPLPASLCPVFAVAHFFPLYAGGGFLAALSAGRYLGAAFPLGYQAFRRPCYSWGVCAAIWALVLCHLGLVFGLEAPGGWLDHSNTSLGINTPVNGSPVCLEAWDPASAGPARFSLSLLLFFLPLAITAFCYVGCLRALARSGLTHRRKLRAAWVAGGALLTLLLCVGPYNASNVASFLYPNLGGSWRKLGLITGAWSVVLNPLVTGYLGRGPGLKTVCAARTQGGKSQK

Consider `O=C(O)[C@H]1[C@@H]2Cc3cc(OCc4ccc5c(c4)C(c4ccccc4C(F)(F)F)CC5c4ccccc4)ncc3[C@@H]21` (stereo partly drawn) [Example 18, (5aR,6S,6aS)-3-((1-phenyl-3-(2-(trifluoromethyl)phenyl)-2,3-dihydro-1H-inden-5-yl)methoxy)-5,5a,6,6a-tetrahydrocyclopropa[4,5]cyclopenta[1,2-c]pyridine-6-carboxylic acid], for which the EC50 on Human GPR40 [1] stood at 24.6 nM; on Human GPR40 [2] it was 13.2 nM.

`O=C(O)[C@H]1[C@@H]2Cc3cc(OCc4ccc5c(c4)C(c4ccccc4C(F)(F)F)CC5c4ccccc4)ncc3[C@@H]21` (stereo partly drawn) [Example 19, (5aR,6S,6aS)-3-((1-phenyl-3-(2-(trifluoromethyl)phenyl)-2,3-dihydro-1H-inden-5-yl)methoxy)-5,5a,6,6a-tetrahydrocyclopropa[4,5]cyclopenta[1,2-c]pyridine-6-carboxylic acid]: the EC50 was 17.5 nM at Human GPR40 [1] and 15.5 nM on Human GPR40 [2].

With `O=C(O)[C@H]1[C@@H]2Cc3cc(OCc4ccc5c(c4)C(O)(c4ccccc4C(F)(F)F)CC5)ccc3[C@@H]21` (stereo partly drawn) [Example 21, (1S,1aS,6aR)-4-((3-hydroxy-3-(2-(trifluoromethyl)phenyl)-2,3-dihydro-1H-inden-5-yl)methoxy)-1,1a,6,6a-tetrahydrocyclopropa[a]indene-1-carboxylic acid], the EC50 on Human GPR40 [1] was determined as 16.6 nM; on Human GPR40 [2] it was 17.7 nM.

For the molecule `CC1(C)CC(c2ccncc2C(F)(F)F)c2cc(COc3cc4c(cn3)[C@H]3[C@@H](C4)[C@@H]3C(=O)O)c(F)cc21` (some centres unmarked) [Example 25], the EC50 on Human GPR40 [1] is 6.91 nM; at Human GPR40 [2] it was 6.92 nM.

As to `CC1(C)CC(c2cccnc2C(F)(F)F)c2cc(COc3cc4c(cn3)[C@H]3[C@@H](C4)[C@@H]3C(=O)O)c(F)cc21` (stereo partly drawn) [Example 26, (5aR,6S,6aS)-3-((6-fluoro-1,1-dimethyl-3-(2-(trifluoromethyl)pyridin-3-yl)-2,3-dihydro-1H-inden-5-yl)methoxy)-5,5a,6,6a-tetrahydrocyclopropa [4,5]cyclopenta[1,2-c]pyridine-6-carboxylic acid], the EC50 on Human GPR40 [1] was found to be 20.8 nM; at Human GPR40 [2], 14.1 nM.

In the case of `COc1ncccc1C1CCC(C)(C)c2cc(F)c(COc3cc4c(cn3)[C@H]3[C@@H](C4)[C@@H]3C(=O)O)cc21` (stereo partly drawn) [Example 27, (5aR,6S,6aS)-3-((3-fluoro-8-(2-methoxypyridin-3-yl)-5,5-dimethyl-5,6,7,8-tetrahydronaphthalen-2-yl)methoxy)-5,5a,6,6a-tetrahydrocyclopropa [4,5]cyclopenta[1,2-c]pyridine-6-carboxylic acid], the EC50 worked out at 15.6 nM on Human GPR40 [1] and 7.22 nM on Human GPR40 [2].

Consider `CC1(C)CC(c2ccc(OCCCS(C)(=O)=O)cc2C(F)(F)F)c2cc(COc3cc4c(cn3)[C@H]3[C@@H](C4)[C@@H]3C(=O)O)c(F)cc21` (stereo partly drawn) [Example 28, (6S)-3-((6-fluoro-1,1-dimethyl-3-(4-(3-(methylsulfonyl)propoxy)-2-(trifluoromethyl)phenyl)-2,3-dihydro-1H-inden-5-yl)methoxy)-5,5a,6,6a-tetrahydrocyclopropa[4,5]cyclopenta[1,2-c]pyridine-6-carboxylic acid], for which the EC50 stood at 41.2 nM at Human GPR40 [1] and 6.9 nM on Human GPR40 [2].

As to `Cc1nc(OCCC(C)(C)O)ccc1C1CCCc2ccc(COc3cc4c(cn3)[C@H]3[C@@H](C4)[C@@H]3C(=O)O)cc21` (stereo partly drawn) [Example 30, (5aR,6S,6aS)-3-((8-(6-(3-hydroxy-3-methylbutoxy)-2-methylpyridin-3-yl)-5,6,7,8-tetrahydronaphthalen-2-yl)methoxy)-5,5a,6,6a-tetrahydrocyclopropa[4,5] cyclopenta[1,2-c]pyridine-6-carboxylic acid], the results for the EC50 at Human GPR40 [1] and at Human GPR40 [2] were 35 nM and 33 nM, respectively.

In the case of `C=C(C)CCOc1ccc(C2CCCc3ccc(COc4cc5c(cn4)[C@H]4[C@@H](C5)[C@@H]4C(=O)O)cc32)c(C)n1` (stereo partly drawn) [Example 31, (5aR,6S,6aS)-3-((8-(2-methyl-6-((3-methylbut-3-en-1-yl)oxy)pyridin-3-yl)-5,6,7,8-tetrahydronaphthalen-2-yl)methoxy)-5,5a,6,6a-tetrahydrocyclopropa[4,5] cyclopenta[1,2-c]pyridine-6-carboxylic acid], the EC50 on Human GPR40 [1] worked out at 214 nM; on Human GPR40 [2] it was 51.9 nM.

`CC1(C)CN(c2ccccc2C(F)(F)F)c2cc(COc3cc4c(cn3)[C@H]3[C@@H](C4)[C@@H]3C(=O)O)c(F)cc21` [Example 32, (5aR,6S,6aS)-3-((5-fluoro-3,3-dimethyl-1-(2-(trifluoromethyl)phenyl)indolin-6-yl)methoxy)-5,5a,6,6a-tetrahydrocyclopropa[4,5]cyclopenta[1,2-c]pyridine-6-carboxylic acid]: the EC50 at Human GPR40 [1] is 9.96 nM; on Human GPR40 [2], 8.94 nM.

`O=C(O)[C@H]1[C@@H]2Cc3cc(OCc4ccc5c(c4)N(c4ccccc4C(F)(F)F)CC5)ncc3[C@@H]21` [Example 33]: the EC50 is 26.2 nM at Human GPR40 [1] and 15.3 nM on Human GPR40 [2].

`O=C(O)[C@H]1[C@@H]2Cc3cc(OCc4ccc5ccn(-c6ccccc6C(F)(F)F)c5c4)ncc3[C@@H]21` [Example 34, (5aR,6S,6aS)-3-((1-(2-(trifluoromethyl)phenyl)-1H-indol-6-yl)methoxy)-5,5a,6,6a-tetrahydrocyclo-propa[4,5]cyclopenta[1,2-c]pyridine-6-carboxylic acid]: the EC50 on Human GPR40 [1] was 23.2 nM; at Human GPR40 [2] it was 33.9 nM.

As to `O=C(O)[C@H]1[C@@H]2Cc3cc(OCc4ccc5c(c4)N(c4ccccc4)CC5)ncc3[C@@H]21` [Example 35, (5aR,6S,6aS)-3-((1-(2-phenyl)indolin-6-yl)methoxy)-5,5a,6,6a-tetrahydrocyclopropa[4,5] cyclopenta[1,2-c]pyridine-6-carboxylicacid], the EC50 on Human GPR40 [1] is 168 nM; at Human GPR40 [2], 53.4 nM.

For the molecule `O=C(O)[C@H]1[C@@H]2Cc3cc(OCc4ccc5c(Br)cn(-c6ccccc6C(F)(F)F)c5c4)ncc3[C@@H]21` [Example 36, (5aR,6S,6aS)-3-({3-bromo-1-[2-(trifluoromethyl)phenyl]-1H-indol-6-yl}methoxy)-5,5a,6,6a-tetrahydrocyclopropa[4,5] cyclopenta[1,2-c]pyridine-6-carboxylic acid], the EC50 on Human GPR40 [1] was determined as 47.6 nM; on Human GPR40 [2], 26.9 nM.

For the molecule `O=C(O)[C@H]1[C@@H]2Cc3cc(OCc4ccc5c(C6CC6)cn(-c6ccccc6C(F)(F)F)c5c4)ncc3[C@@H]21` [Example 37, (5aR,6S,6aS)-3-({3-cyclopropyl-1-[2-(trifluoromethyl)phenyl]-1H-indol-6-yl}methoxy)-5,5a,6,6a-tetrahydrocyclopropa[4,5] cyclopenta[1,2-c]pyridine-6-carboxylic acid], the EC50 turned out to be 91.5 nM on Human GPR40 [1] and 42.5 nM on Human GPR40 [2].

For the molecule `CN1C(c2ccccc2C(F)(F)F)c2cc(COc3cc4c(cn3)[C@H]3[C@@H](C4)[C@@H]3C(=O)O)ccc2C1(C)C` (stereo partly drawn) [Example 38, (5aR,6S,6aS)-3-((1,1,2-trimethyl-3-(2-(trifluoromethyl)phenyl)isoindolin-5-yl)methoxy)-5,5a,6,6a-tetrahydrocyclopropa[4,5]cyclopenta[1,2-c]pyridine-6-carboxylic acid], the EC50 at Human GPR40 [1] was 11.9 nM; on Human GPR40 [2] it was 5.35 nM.

Consider `CC1(C)NC(c2ccccc2C(F)(F)F)c2cc(COc3cc4c(cn3)[C@H]3[C@@H](C4)[C@@H]3C(=O)O)ccc21` (stereo partly drawn) [Example 39, (5aR,6S,6aS)-3-((1,1-dimethyl-3-(2-(trifluoromethyl)phenyl)isoindolin-5-yl)methoxy)-5,5a,6,6a-tetrahydrocyclopropa[4,5]cyclopenta[1,2-c]pyridine-6-carboxylic acid], for which the figures for the EC50 on Human GPR40 [1] and at Human GPR40 [2] were 15.4 nM and 13.9 nM, respectively.

As for `CC1(c2ccccc2C(F)(F)F)OCc2ccc(COc3cc4c(cn3)[C@H]3[C@@H](C4)[C@@H]3C(=O)O)cc21` (some centres unmarked) [Example 40], the EC50 amounted to 431 nM at Human GPR40 [1] and 16.7 nM at Human GPR40 [2].

For the molecule `Cc1c(COc2cc3c(cn2)[C@H]2[C@@H](C3)[C@@H]2C(=O)O)ccc2c1C(c1ccccc1C(F)(F)F)CCC2` (stereo partly drawn) [Example 43, (5aR,6S,6aS)-3-((1-methyl-8-(2-(trifluoro-methyl)phenyl)-5,6,7,8-tetrahydro-naphthalen-2-yl)methoxy)-5,5a,6,6a-tetrahydrocyclopropa[4,5] cyclopenta[1,2-c]pyridine-6-carboxylic acid], the EC50 on Human GPR40 [1] was 70.8 nM; on Human GPR40 [2], 38.8 nM.

Source of the values: US10000454B2, “Antidiabetic tricyclic compounds” (Merck Sharp & Dohme Corp., priority 2014, dated 2018).
